Experimental data from patent publication US20130072519A1, “2-PHENYL BENZOYLAMIDES” (priority 2010, published 2013).

These compounds were tested on Apolipoprotein B Secretion from HepG2 Cells (assay: Inhibition of Apolipoprotein B secretion from HepG2 cells (ELISA)). Settings: HepG2 cells, 22-24 hours incubation, ApoB ELISA; Low/High IC50 columns give the 95% confidence interval.
Type: cell-based, human
Protocol: Inhibition of Apolipoprotein B Secretion from HepG2 Cells
To assess the inhibitory effect of the compounds of the invention on ApoB production, an endogenously ApoB producing cell line, HEPG2, was implemented in an in vitro ELISA assay. HEPG2 cells are plated at 25,000 per well (96-well plates) in media consisting of DMEM Low Glucose, 1% NEAA (non-essential amino acids), 10% FBS (heat inactivated), 1% L-Glutamine, and 1% Antimycotic-Antibiotic and incubated for 16-18 hours at 37° C. and 5% CO2. After the 16-18 hour incubation, a 12 point half-log serial of the inhibitor (1000 nM-0.003 nM) is prepared, and 1.5 ul of the serial dilution is added to HEPG2 cells, which have had their media decanted and replaced with 148 ul of fresh media, and the cells are incubated for 22-24 hours at 37° C. and 5% CO2. Two and a half hours before the 22-24 hour incubation period is completed, Nunc Maxisorp plates are coated with 100 ul of primary (coating) antibody (goat anti-apoB), diluting to a ratio of 1:1000 in 1% Carbonate-Bicarbonate Coating Buffer and incubated for at least 2 hours at room temperature before the primary antibody is decanted and the wells of the microplate are washed with 200 ul of washing buffer (1% PBS, 0.05% Tween20). Next, 200 ul of blocking buffer (1% PBS, 1:500 Western Block, 5 mg/ml BSA) is added to the wells of the microplate, and incubated for at least 30 mins. Following the 22-24 hours incubation period, cell plates are removed from the incubator, 20 ul of supernatant from each well is aspirated, added to a corresponding well in 96 well plate containing 140 ul of diluent (1:2-Blocking Buffer: Washing Buffer), and mixed. Then, 120 ul is aspirated from the dilutent-supernatant plate, added to the blocked Nunc Maxisorp 96 well plate, and placed at room temperature on a shaker to mix for at least 2 hours. The secondary (capture) antibody (mouse anti-human apoB) is prepared at a ratio of 1:4000, and the detection antibody (goat anti-mouse HRP conjugated antibody) at a ratio of 1:10,000. For each antibody, 100 ul is added to each well of the microplate and the microplate is incubated at room temperature for 2 hours, washing the microplates between each antibody addition. Colorimetric development is achieved by adding 50 ul of TMB reagent to each well, incubating for 5 mins at room temperature, then adding 50 ul of 2M Sulfuric Acid to each well. Absorbance at 450 nm is monitored in an Envision plate reader to measure the amount of ApoB formed.
Results reported as average IC50, low and high IC50 range (95% confidence interval).
`CCOC(=O)C1(COC(=O)Cc2ccc(NC(=O)c3ccccc3-c3ccc(C(F)(F)F)cc3)c(C(=O)N(C)C)c2)CCCc2ccccc21` (single isomer, unassigned; (+)) [Example 46, (+)-Ethyl 1-({2-[3-(Dimethylcarbamoyl)-4-({[4′-(trifluoromethyl)biphenyl-2-yl]carbonyl}amino)phenyl]acetoxy}methyl)-1,2,3,4-tetrahydronaphthalene-1-carboxylate] gave an IC50 of 1.66 nM.
`CCOC(=O)C1(COC(=O)Cc2ccc(NC(=O)c3cccc(C)c3-c3ccc(C(F)(F)F)cc3)c(C(=O)N(C)C)c2)NC(=O)c2ccccc21` (stereo not drawn) [Example 11] was tested, and the IC50 was 29.4 nM.
`CCOC(=O)C1(COC(=O)Cc2ccc(NC(=O)c3cccc(C)c3-c3ccc(C(F)(F)F)cc3)c(C(=O)N(C)C)c2)NC(=O)c2ccccc21` (stereo not drawn) [Example 12] gave an IC50 of 156 nM.
Work on `CN(C)C(=O)c1cc(CC(=O)OCC2(C(=O)OCc3ccccc3)c3ccccc3C(=O)N2C)ccc1NC(=O)c1ccccc1-c1ccc(C(F)(F)F)cc1` (stereo not drawn) [Example 22] yielded an IC50 of 83.5 nM.
In the case of `CCOC(=O)C1(COC(=O)Cc2ccc(NC(=O)c3ccccc3-c3ccc(C(F)(F)F)cc3)c(C(=O)N(C)C)c2)c2ccccc2C(=O)N1CC` (stereo not drawn) [Example 20], the IC50 is reported as 1.76 nM.
With `CCOC(=O)C1(COC(=O)Cc2ccc(NC(=O)c3ccccc3-c3ccc(C(F)(F)F)cc3)c(C(=O)N(C)C)c2)CCc2cccnc21` (stereo not drawn) [Example 38] the IC50 was 19.9 nM.
`CN(C)C(=O)c1cc(CC(=O)OCC2(C(=O)OCc3ccccc3)c3ccccc3C(=O)N2C)ccc1NC(=O)c1ccccc1-c1ccc(C(F)(F)F)cc1` (stereo not drawn) [Example 23] gave an IC50 of 0.333 nM.
Compound `CCOC(=O)C1(COC(=O)Cc2ccc(NC(=O)c3ccccc3-c3ccc(C(F)(F)F)cc3)c(C(=O)N(C)C)c2)NC(=O)c2ccccc21` (stereo not drawn) [Example 24] has an IC50 of 28 nM.

Same assay, conditions: Homo sapiens, HepG2, HepG2 cells, 22-24 hours incubation, ApoB ELISA; Low/High IC50 columns give the 95% confidence interval
`CCOC(=O)C1(COC(=O)Cc2ccc(NC(=O)c3ccccc3-c3ccc(C(F)(F)F)cc3)c(C(=O)N(C)C)c2)c2ccccc2C(=O)N1CC(F)(F)F` (racemic) [Example 16] gave an IC50 of 2.73 nM.
Work on `CCOC(=O)C1(COC(=O)Cc2ccc(NC(=O)c3cccc(C)c3-c3ccc(OC(C)C)cc3)c(C(=O)N(C)C)c2)c2ccccc2C(=O)N1C` (stereo not drawn) [Example 51, ethyl 1-({2-[3-(dimethylcarbamoyl)-4-{[(4′-isopropoxy-6-methylbiphenyl-2-yl)carbonyl]amino}phenyl]acetoxy}methyl)-2-methyl-3-oxoisoindoline-1-carboxylate] yielded an IC50 of 0.159 nM.
Work on `CCOC(=O)[C@]1(COC(=O)Cc2ccc(NC(=O)c3ccccc3-c3ccccc3)c(C(=O)N(C)C)c2)c2ccccc2C(=O)N1C` [Example 74, ethyl (1R)-1-[(2-{4-[(biphenyl-2-ylcarbonyl)amino]-3-(dimethylcarbamoyl)phenyl}acetoxy)methyl]-2-methyl-3-oxoisoindoline-1-carboxylate] yielded an IC50 of 1.28 nM.
For `CCOC(=O)[C@]1(COC(=O)Cc2ccc(NC(=O)c3cccc(OC)c3-c3ccc(OC(C)C)cc3)c(C(=O)N(C)C)c2)c2ccccc2C(=O)N1C` [Example 63, ethyl (1R)-1-({2-[3-(dimethylcarbamoyl)-4-{[(4′-isopropoxy-6-methoxybiphenyl-2-yl)carbonyl]amino}phenyl]acetoxy}methyl)-2-methyl-3-oxoisoindoline-1-carboxylate], the IC50 was 0.119 nM.
`CCOC(=O)C1(COC(=O)Cc2ccc(NC(=O)c3ccccc3-c3ccc(C(F)(F)F)cc3)c(C)c2)c2ccccc2C(=O)N1C` (stereo not drawn) [Example 17] showed an IC50 of 3.07 nM.
Compound `CCOC(=O)[C@]1(COC(=O)Cc2ccc(NC(=O)c3ccccc3-c3ccc(C(C)C)cc3)c(C(=O)N(C)C)c2)c2ccccc2C(=O)N1C` [Example 73, ethyl (1R)-1-({2-[3-(dimethylcarbamoyl)-4-{[(4′-isopropylbiphenyl-2-yl)carbonyl]amino}phenyl]acetoxy}methyl)-2-methyl-3-oxoisoindoline-1-carboxylate] has an IC50 of 0.162 nM.
`CCOC(=O)C1(COC(=O)Cc2ccc(NC(=O)c3ccccc3-c3ccc(C(F)(F)F)cc3)cc2)c2ccccc2C(=O)N1C` (stereo not drawn) [Example 18] showed an IC50 of 23.9 nM.
Work on `CCOC(=O)C1(COC(=O)Cc2ccc(NC(=O)c3ccccc3-c3ccc(C(F)(F)F)cc3)c(C(=O)N(C)C)c2)c2ccccc2C(=O)N1Cc1ccc(OC)cc1OC` (racemic) [Example 27] yielded an IC50 of 30.8 nM.
In the case of `COC(=O)C1(COC(=O)Cc2ccc(NC(=O)c3ccccc3-c3ccc(C(F)(F)F)cc3)c(C(=O)N(C)C)c2)CCc2ccccc21` (racemic) [Example 28], the IC50 is reported as 3.17 nM.
Work on `CCOC(=O)C1(COC(=O)Cc2ccc(NC(=O)c3ccccc3-c3ccc(C(F)(F)F)cc3)c(C(=O)N(C)C)c2)c2ccccc2C(=O)N1C` (stereo not drawn) [Example 13] yielded an IC50 of 7.18 nM.
For `CCOC(=O)C1(COC(=O)Cc2ccc(NC(=O)c3cccc(C)c3-c3ccc(C(F)(F)F)cc3)c(C(=O)N(C)C)c2)c2ccccc2C(=O)N1C` (stereo not drawn) [Example 7], the IC50 was 15.6 nM.
For `CCOC(=O)C1(COC(=O)Cc2ccc(NC(=O)c3ccccc3-c3ccc(C(F)(F)F)cc3)c(C(=O)N(C)C)c2)CCCc2ccccc21` (racemic) [Example 41], the IC50 was 0.701 nM.
`Cc1cccc(C(=O)Nc2ccc(CC(=O)OCC3(C(=O)OCc4ccccc4)c4ccccc4C(=O)N3C)cc2C(=O)N(C)C)c1-c1ccc(C(F)(F)F)cc1` (racemic) [Example 8] showed an IC50 of 0.436 nM.
With `CCOC(=O)[C@]1(COC(=O)Cc2ccc(NC(=O)c3ccc(OC)cc3-c3ccc(C(C)(C)C)cc3)c(C(=O)N(C)C)c2)c2ccccc2C(=O)N1C` [Example 69, ethyl (1R)-1-({2-[4-{[(4′-tert-butyl-5-methoxybiphenyl-2-yl)carbonyl]amino}-3-(dimethylcarbamoyl)phenyl]acetoxy}methyl)-2-methyl-3-oxoisoindoline-1-carboxylate] the IC50 was 0.18 nM.
`CCOC(=O)C1(COC(=O)Cc2ccc(NC(=O)c3ccccc3-c3ccc(C(F)(F)F)cc3)c(C(=O)N(C)C)c2)NC(=O)c2ccccc21` (racemic) [Example 21] gave an IC50 of 16.5 nM.
`CCOC(=O)[C@]1(COC(=O)Cc2ccc(NC(=O)c3ccccc3-c3ccc(C(C)(C)C)cc3)c(C(=O)N(C)C)c2)c2ccccc2C(=O)N1C` [Example 66, ethyl (1R)-1-({2-[4-{[(4′-tert-butylbiphenyl-2-yl)carbonyl]amino}-3-(dimethylcarbamoyl)phenyl]acetoxy}methyl)-2-methyl-3-oxoisoindoline-1-carboxylate] gave an IC50 of 0.206 nM.
In the case of `CCN1C(=O)c2ccccc2C1(COC(=O)Cc1ccc(NC(=O)c2cccc(C)c2-c2ccc(C(F)(F)F)cc2)c(C(=O)N(C)C)c1)C(=O)OC` (racemic) [Example 65, methyl 1-({2-[3-(dimethylcarbamoyl)-4-({[6-methyl-4′-(trifluoromethyl)biphenyl-2-yl]carbonyl}amino)phenyl]acetoxy}methyl)-2-ethyl-3-oxoisoindoline-1-carboxylate], the IC50 is reported as 0.38 nM.
With `CCOC(=O)[C@]1(COC(=O)Cc2ccc(NC(=O)c3cccc(OC)c3-c3ccccc3)c(C(=O)N(C)C)c2)c2ccccc2C(=O)N1C` [Example 64, ethyl (1R)-1-({2-[3-(dimethylcarbamoyl)-4-{[(6-methoxybiphenyl-2-yl)carbonyl]amino}phenyl]acetoxy}methyl)-2-methyl-3-oxoisoindoline-1-carboxylate] the IC50 was 0.536 nM.
With `CCOC(=O)[C@]1(COC(=O)Cc2ccc(NC(=O)c3cccc(C)c3-c3ccc(C(C)(C)C)cc3)c(C(=O)N(C)C)c2)c2ccccc2C(=O)N1C` [Example 67, ethyl (1R)-1-({2-[4-{[(4′-tert-butyl-6-methylbiphenyl-2-yl)carbonyl]amino}-3-(dimethylcarbamoyl)phenyl]acetoxy}methyl)-2-methyl-3-oxoisoindoline-1-carboxylate] the IC50 was 0.244 nM.
With `CCOC(=O)[C@]1(COC(=O)Cc2ccc(NC(=O)c3ccc(C)cc3-c3ccc(C(C)(C)C)cc3)c(C(=O)N(C)C)c2)c2ccccc2C(=O)N1C` [Example 68, ethyl (1R)-1-({2-[4-{[(4′-tert-butyl-5-methylbiphenyl-2-yl)carbonyl]amino}-3-(dimethylcarbamoyl)phenyl]acetoxy}methyl)-2-methyl-3-oxoisoindoline-1-carboxylate] the IC50 was 0.178 nM.
In the case of `CCOC(=O)C1(COC(=O)Cc2ccc(NC(=O)c3ccccc3-c3ccc(C(F)(F)F)cc3)c(C(=O)N(C)C)c2)c2ccccc2C(=O)N1CC` (racemic) [Example 15], the IC50 is reported as 1.45 nM.
In the case of `CCOC(=O)C1(COC(=O)Cc2ccc(NC(=O)c3ccccc3-c3ccc(C(F)(F)F)cc3)c(C(=O)N(C)C)c2)CCCc2cccnc21` (racemic) [Example 42], the IC50 is reported as 0.529 nM.
